Where a name gives a salt, the structure may show the parent alone. One block for each compound: values may come before it.
Target: T1, Factor XIIIa (Homo sapiens, UniProt P00488)
T1 construct: from tissue; host or cells: human plasma
T1 sequence (P00488 39-732 limits assumed): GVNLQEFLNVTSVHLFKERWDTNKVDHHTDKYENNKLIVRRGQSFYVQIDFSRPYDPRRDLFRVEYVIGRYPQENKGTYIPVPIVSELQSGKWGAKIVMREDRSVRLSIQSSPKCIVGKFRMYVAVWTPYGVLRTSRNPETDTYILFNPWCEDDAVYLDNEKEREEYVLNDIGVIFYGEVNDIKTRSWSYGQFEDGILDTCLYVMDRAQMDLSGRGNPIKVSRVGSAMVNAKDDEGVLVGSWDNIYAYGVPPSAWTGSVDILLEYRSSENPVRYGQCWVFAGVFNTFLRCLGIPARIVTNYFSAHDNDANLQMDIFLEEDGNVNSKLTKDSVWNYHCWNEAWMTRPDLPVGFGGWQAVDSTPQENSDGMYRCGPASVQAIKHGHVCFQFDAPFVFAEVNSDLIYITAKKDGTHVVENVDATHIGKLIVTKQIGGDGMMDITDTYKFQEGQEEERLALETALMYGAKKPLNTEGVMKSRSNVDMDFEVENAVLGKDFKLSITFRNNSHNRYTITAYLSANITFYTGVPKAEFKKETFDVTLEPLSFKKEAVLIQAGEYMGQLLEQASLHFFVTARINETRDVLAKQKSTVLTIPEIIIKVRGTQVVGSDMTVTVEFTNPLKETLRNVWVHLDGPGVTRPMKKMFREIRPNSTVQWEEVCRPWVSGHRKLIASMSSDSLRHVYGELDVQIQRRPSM
Assay: Factor XIIIa inhibitor assay (incorporation of 14C-putrescine into casein)
Format: biochemical
Details: for inhibition at 0.1 µM: @ 100 nM
Protocol: The Factor XIIIa inhibitor assay is based on the incorporation of ^14 C-putrescine into casein catalyzed by Factor XIIIa. The assay is carried out employing the procedure described in Methods in Enzymology, Vol. 45, Ch 15., pages 177-191 (1976) and using Factor XIII (F XIII) isolated from human plasma. The procedure is summarized briefly and schematically illustrated as follows: [drawing 9] Factor XIII assay mixtures are prepared by adding stepwise, appropriately prepared solutions of thrombin and dithiothreitol (DTT) to a mixture comprising Factor XIII at 140 μg/mL in glycerol/water and tris(hydroxymethyl)aminomethane hydrochloride (Tris.HCl). To a portion of the mixture is added calcium chloride as source of calcium ions required for enzyme activity and to the remaining mixture is added, instead of calcium ions, ethylenediaminetetraacetic acid (EDTA) which serves as a blank for background. A substrate mixture is prepared from ^14 C-putrescine and N,N-dimethylcasein. The assay tubes and control tubes are charged with the substrate mixture and incubated at 37° C. for 20 minutes. Samples are withdrawn from each tube, spotted onto a filter disk which is then immersed in ice cold trichloroacetic acid solution to precipitate the casein on the filter. The filter is then washed to remove unincorporated or free ^14 C-putrescine and after drying is counted for ^14 C-putrescine incorporated to casein from which percent activity and/or inhibition can be calculated.

[1] = read-out: Percent inhibition (Molar concn)

inhibition at 0.1 µM [1]: 93%
Compound: CCC(=O)CSc1n(C)c(C)c(C)[n+]1C [CH3, CH3, CH3, CH3, CH3, CF3 SO3^-]

inhibition at 0.1 µM [1]: 86%
Compound: CCCc1c(CCC)[n+](C)c(SCC(C)=O)n1C [H, CH3, C3 H7, C3 H7, CH3, CF3 SO3^-, 1,3-Dimethyl-4,5-di(n-propyl)-2-[(2-oxopropyl)thio]imidazolium trifluoromethylsulfonate]

inhibition at 4 µM (@ 4 μM, read-out: Percent inhibition (Molar concn)): 46%
Compound: CCCc1nc(SCC(C)=O)n(C)c1C [H, CH3, CH3, C3 H7, --, HCl]

inhibition at 3.7 µM (@ 3.7 μM, read-out: Percent inhibition (Molar concn)): 76%
Compound: CC(=O)CSc1nc(C)c(C)n1C [H, CH3, CH3, CH3, --, HCl, 1,4,5-Trimethyl-2[(2-oxopropyl)thio]imidazole]

inhibition at 0.08 µM (@ 80 nM, read-out: Percent inhibition (Molar concn)): 95%
Compound: CC(=O)CSc1n(C)c(C)c(C)[n+]1C [H, CH3, CH3, CH3, CH3, CF3 SO3^-, 1,3,4,5-tetramethyl-2[(2-oxopropyl)thio]imidazolium trifluoromethylsulfonate]

Percent inhibition (Molar concn) (@ 80 nM): 95%
Compound: CC(=O)CSc1n(C)c(C)c(C)[n+]1C.[Cl-] [H, CH3, CH3, CH3, CH3, Cl^-, 1,3,4,5-Tetramethyl-2[(2-oxopropyl)thio]imidazolium chloride]

inhibition at 2 µM (@ 2 μM, read-out: Percent inhibition (Molar concn)): 47%
Compound: CC(=O)CSc1ncc(C)n1C [H, CH3, CH3, H, --, HCl, 1,5-Dimethyl-2[(2-oxopropyl)thio]imidazole]

inhibition at 0.1 µM [1]: 90%
Compound: CC(=O)CSc1n(C)c(C)c[n+]1C [H, CH3, CH3, H, CH3, CF3 SO3^-, 1,3,5-Trimethyl-2[(2-oxopropyl)thio]imidazolium trifluoromethylsulfonate]

inhibition at 0.15 µM (@ 0.15 μM, read-out: Percent inhibition (Molar concn)): 40%
Compound: CC(=O)CSc1nccn1C [H, CH3, H, H, --, --]

inhibition at 0.313 µM (@ 313 nM, read-out: Percent inhibition (Molar concn)): 67%
Compound: CC(=O)CSc1n(C)cc[n+]1C [H, CH3, H, H, CH3, Cl^-]

inhibition at 0.11 µM (@ 110 nM, read-out: Percent inhibition (Molar concn)): 44%
Compound: CC(=O)CSc1n(C)cc[n+]1C [H, CH3, H, H, CH3, I^-]

inhibition at 1 µM (@ 1.0 μM, read-out: Percent inhibition (Molar concn)): 44%
Compound: CC(=O)CSc1n(C)c(C(C)C)c(C(C)C)[n+]1C [H, CH3, iPr, iPr, CH3, CF3 SO3^-]
